Laboratory results published in PubChem BioAssay (NCI).
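Tested at 5 concentrations; 48 h exposure; 96-well plates; endpoints linearly interpolated, else capped at highest concentration. At the TGI there is no net growth.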

Assays:
Experiment in all cases: DTP human tumour cell line panel, 48 h
[1] = test system: OVCAR-5 ovarian
[2] = test system: HOP-62 NSCLC
[3] = test system: KM20L2 colon
[4] = test system: HL-60(TB) leukemia
[5] = test system: OVCAR-8 ovarian
[6] = test system: HCT-15 colon
[7] = test system: SNB-75 CNS
[8] = test system: SF-539 CNS
[9] = test system: DMS 114 small cell lung

Row | Compound | TGI [1] [µM] | TGI [2] [µM] | TGI [3] [µM] | TGI [4] [µM] | TGI [5] [µM] | TGI [6] [µM] | TGI [7] [µM] | TGI [8] [µM] | TGI [9] [µM]
1 | C=CCNC(=O)N(CCCCC(NC(C)=O)C(=O)NCc1ccccc1)Cc1ccccc1 (stereo unspecified) | > 100 | > 100 | > 100 | > 100 | > 100 | > 100 | > 100 | > 100 | 
2 | O=C(O)C1=C(O)C(C(=O)O)C23CCCCCCCCCCC12C(C(=O)O)C(O)=C3C(=O)O (stereo unspecified) | > 100 |  |  | > 100 | > 100 | > 100 |  | > 100 | > 100
3 | COC(=O)CC1C[C@H](C#N)N(C(=O)c2ccccc2)C[C@@H]1CC[N+](=O)[O-] (stereo partly specified) | > 100 | > 100 | > 100 | > 100 | > 100 | > 100 | > 100 | > 100 | 
4 | CCN(CC)c1c(C(=O)/C=C/c2ccc(Cl)cc2)c(-c2ccccc2)nn(C)c1=O | 3.23 | 4.26 | 7.84 | 6.46 | 3.1 | 3.31 | 7.5 |  | 3.76
5 | O=[N+]([O-])c1ccc(C[P+](c2ccccc2)(c2ccccc2)c2ccccc2)cc1 | > 100 | > 100 | > 100 | > 100 | > 100 | > 100 | > 100 | > 100 | > 100
6 | CCOC(=O)C12CCCC1(O)N(NC(=O)OC(C)(C)C)C(C)=C2C(=O)OC (stereo unspecified) | > 100 | > 100 | > 100 | > 100 | > 100 | > 100 |  | > 100 | > 100
7 | COC(=O)NC(=O)c1cn(C2OC(CO)C(O)C2O)c(=O)[nH]c1=O (stereo unspecified) | > 100 | > 100 | > 100 | > 100 | > 100 | > 100 | > 100 | > 100 | 
8 | CCOC(=O)c1nn2c(nc1=O)sc1ccc3ccccc3c12 | > 100 | > 100 | > 100 | > 100 | > 100 | > 100 | > 100 | > 100 | > 100
9 | NC(=O)C(=O)N/N=C1\C(=O)N(c2ccc(Cl)cc2Cl)C(=O)C1C(=O)Nc1ccc(Cl)cc1Cl (stereo unspecified) | > 100 | > 100 | > 100 | > 100 | > 100 | > 100 | > 100 | > 100 | > 100
10 | O/N=C1/C(=C/c2ccc3c(c2)OCO3)CCCC1C(NO)c1ccc2c(c1)OCO2 (stereo unspecified) |  | 53.7 | 34.6 | 36.4 | 67.1 | 83.8 | 80.1 | 32.4 | 60.7
11 | O=C(O)CCN(CCCCN(CCC(=O)O)CCC(=O)O)CCC(=O)O | > 100 | > 100 |  | > 100 | > 100 | > 100 | > 100 | > 100 | > 100
12 | CCCCCCCCCCCc1nnc(N)o1 | > 100 | > 100 | > 100 | > 100 | > 100 | > 100 | > 100 | > 100 | 
13 | COc1ccc(/C=N/N=C(\N)NO)cc1O | > 100 |  |  |  |  | > 100 |  | 94.4 | > 100
